Reference: US20050112573A1, “Method of detecting toxic substance” (priority 2001, published 2005)

System: yeast genes (level of expressed mRNA)
Experiment: DNA chip analysis of expressed mRNA of yeast genes after 2 h culture with a toxic chemical substance
Type: cell-based, Saccharomyces cerevisiae S288C
Details: for The level of expressed mRNA in the presence of chemical substance/ (ratio to absence of chemical substance): stress protein genes, DNA chip; for The level of expressed mRNA in the presence of chemical substance/ in its absence, gene YPR184W: yeast gene YPR184W
Outline: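 S. cerevisiae S288C grown at 25° C in YPD; toxicant added at log phase at growth-inhibitory, non-lethal levels for 2 h, untreated cells as control. Poly(A) mRNA reverse-transcribed with Cy3/Cy5-dUTP, hybridized to whole-genome chip at 65° C >12 h; value is fluorescence ratio versus untreated.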

C=CC=O [(14), acrolein]
0.6: The level of expressed mRNA in the presence of chemical substance/The level of expressed mRNA in the absence of chemical substance (yeast gene YOR355W) | The level of expressed mRNA in the presence of chemical substance/The level of expressed mRNA in the absence of chemical substance (yeast gene YOR383C)
0.9: The level of expressed mRNA in the presence of chemical substance/The level of expressed mRNA in the absence of chemical substance (yeast gene YOL013C) | The level of expressed mRNA in the presence of chemical substance/ (in its absence), gene YOL108C (yeast gene YOL108C, ratio of DNA chip fluorescence intensity to that without chemical substance) | The level of expressed mRNA in the presence of chemical substance/ (in its absence), gene YOL116W (yeast gene YOL116W, ratio of DNA chip fluorescence intensity to that without chemical substance) | The level of expressed mRNA in the presence of chemical substance/ (ratio to absence of chemical substance) (yeast gene YOL161C) | The level of expressed mRNA in the presence of chemical substance/ (ratio to absence of chemical substance) (yeast gene YOR008C) | The level of expressed mRNA in the presence of chemical substance/The level of expressed mRNA in the absence of chemical substance (yeast gene YOR181W) | The level of expressed mRNA in the presence of chemical substance/ (in its absence), gene YOR363C (yeast gene YOR363C, ratio of DNA chip fluorescence intensity to that without chemical substance)
1.0: The level of expressed mRNA in the presence of chemical substance/ (in its absence), gene YNR072W (yeast gene YNR072W, ratio of DNA chip fluorescence intensity to that without chemical substance) | The level of expressed mRNA in the presence of chemical substance/The level of expressed mRNA in the absence of chemical substance (yeast gene YOR117W) | The level of expressed mRNA in the presence of chemical substance/ (in its absence), gene YOR180C (yeast gene YOR180C, ratio of DNA chip fluorescence intensity to that without chemical substance) | The level of expressed mRNA in the presence of chemical substance/ (ratio to absence), gene YOR316C (yeast gene YOR316C, mitochondria-located protein genes, 2 h culture with chemical) | The level of expressed mRNA in the presence of chemical substance/The level of expressed mRNA in the absence of chemical substance (yeast gene YPL149W) | The level of expressed mRNA in the presence of chemical substance/The level of expressed mRNA in the absence of chemical substance (yeast gene YPR108W) | The level of expressed mRNA in the presence of chemical substance/ (in its absence), gene YPR165W (yeast gene YPR165W, ratio of DNA chip fluorescence intensity to that without chemical substance)
2.2: The level of expressed mRNA in the presence of chemical substance/The level of expressed mRNA in the absence of chemical substance (yeast gene YOR157C)
1.3: The level of expressed mRNA in the presence of chemical substance/The level of expressed mRNA in the absence of chemical substance (yeast gene YNR010W) | The level of expressed mRNA in the presence of chemical substance/The level of expressed mRNA in the absence of chemical substance (yeast gene YOL164W) | The level of expressed mRNA in the presence of chemical substance/ (ratio to absence of chemical substance) (yeast gene YPL059W) | The level of expressed mRNA in the presence of chemical substance/The level of expressed mRNA in the absence of chemical substance (yeast gene YPL109C) | The level of expressed mRNA in the presence of chemical substance/ (ratio to absence of chemical substance) (yeast gene YPR005C) | The level of expressed mRNA in the presence of chemical substance/ in its absence, gene YPR184W (energy system protein genes, 2 h culture with the chemical, ratio to control without chemical) | The level of expressed mRNA in the presence of chemical substance/ in its absence, gene YPR184W (ratio of DNA chip fluorescence intensity to that without chemical substance)
2.1: The level of expressed mRNA in the presence of chemical substance/The level of expressed mRNA in the absence of chemical substance (yeast gene YNR069C) | The level of expressed mRNA in the presence of chemical substance/The level of expressed mRNA in the absence of chemical substance (yeast gene YOR185C)
1.4: The level of expressed mRNA in the presence of chemical substance/ (ratio to absence), gene YOL096C (yeast gene YOL096C, mitochondria-located protein genes, 2 h culture with chemical) | The level of expressed mRNA in the presence of chemical substance/ (in its absence), gene YOL096C (yeast gene YOL096C, ratio of DNA chip fluorescence intensity to that without chemical substance) | The level of expressed mRNA in the presence of chemical substance/ (ratio to absence), gene YPL134C (yeast gene YPL134C, mitochondria-located protein genes, 2 h culture with chemical)
0.4: The level of expressed mRNA in the presence of chemical substance/The level of expressed mRNA in the absence of chemical substance (yeast gene YNL007C) | The level of expressed mRNA in the presence of chemical substance/ (ratio to absence of chemical substance) (yeast gene YOR010C)
1.6: The level of expressed mRNA in the presence of chemical substance/ (in its absence), gene YPL148C (yeast gene YPL148C, ratio of DNA chip fluorescence intensity to that without chemical substance)
1.1: The level of expressed mRNA in the presence of chemical substance/The level of expressed mRNA in the absence of chemical substance (yeast gene YNL093W) | The level of expressed mRNA in the presence of chemical substance/The level of expressed mRNA in the absence of chemical substance (yeast gene YOR198C) | The level of expressed mRNA in the presence of chemical substance/ (in its absence), gene YOR251C (yeast gene YOR251C, ratio of DNA chip fluorescence intensity to that without chemical substance) | The level of expressed mRNA in the presence of chemical substance/ (ratio to absence), gene YPL040C (yeast gene YPL040C, mitochondria-located protein genes, 2 h culture with chemical) | The level of expressed mRNA in the presence of chemical substance/ (ratio to absence of chemical substance) (yeast gene YPL140C) | The level of expressed mRNA in the presence of chemical substance/ (ratio to absence of chemical substance) (yeast gene YPL194W)
1.9: The level of expressed mRNA in the presence of chemical substance/The level of expressed mRNA in the absence of chemical substance (yeast gene YNL333W)
1.2: The level of expressed mRNA in the presence of chemical substance/ (in its absence), gene YNL025C (yeast gene YNL025C, ratio of DNA chip fluorescence intensity to that without chemical substance) | The level of expressed mRNA in the presence of chemical substance/The level of expressed mRNA in the absence of chemical substance (yeast gene YOR036W) | The level of expressed mRNA in the presence of chemical substance/ (in its absence), gene YOR103C (yeast gene YOR103C, ratio of DNA chip fluorescence intensity to that without chemical substance) | The level of expressed mRNA in the presence of chemical substance/The level of expressed mRNA in the absence of chemical substance (yeast gene YOR259C) | The level of expressed mRNA in the presence of chemical substance/ (in its absence), gene YOR348C (yeast gene YOR348C, ratio of DNA chip fluorescence intensity to that without chemical substance)
0.8: The level of expressed mRNA in the presence of chemical substance/The level of expressed mRNA in the absence of chemical substance (yeast gene YNL006W) | The level of expressed mRNA in the presence of chemical substance/ (ratio to absence of chemical substance) (yeast gene YNL064C) | The level of expressed mRNA in the presence of chemical substance/ (ratio to absence of chemical substance) (yeast gene YNR076W) | The level of expressed mRNA in the presence of chemical substance/The level of expressed mRNA in the absence of chemical substance (yeast gene YOR124C) | The level of expressed mRNA in the presence of chemical substance/The level of expressed mRNA in the absence of chemical substance (yeast gene YOR288C) | The level of expressed mRNA in the presence of chemical substance/The level of expressed mRNA in the absence of chemical substance (yeast gene YPL089C) | The level of expressed mRNA in the presence of chemical substance/The level of expressed mRNA in the absence of chemical substance (yeast gene YPL154C)
0.7: The level of expressed mRNA in the presence of chemical substance/ (ratio to absence), gene YNL073W (yeast gene YNL073W, mitochondria-located protein genes, 2 h culture with chemical) | The level of expressed mRNA in the presence of chemical substance/ (in its absence), gene YNL192W (yeast gene YNL192W, ratio of DNA chip fluorescence intensity to that without chemical substance) | The level of expressed mRNA in the presence of chemical substance/ (ratio to absence of chemical substance) (yeast gene YOR009W) | The level of expressed mRNA in the presence of chemical substance/The level of expressed mRNA in the absence of chemical substance (yeast gene YOR132W)
1.8: The level of expressed mRNA in the presence of chemical substance/The level of expressed mRNA in the absence of chemical substance (yeast gene YOR261C) | The level of expressed mRNA in the presence of chemical substance/The level of expressed mRNA in the absence of chemical substance (yeast gene YPR103W)
